In US12441691B2 (Cytokinetics, Inc., priority 2020, dated 2025):

Test system: rabbit skeletal myofibrils (fast skeletal myofibrils)
Experiment: Activation of fast skeletal myofibrils (PUMA assay, AC1.4)
Assay type: biochemical
Conditions: calcium at pCa25, AC1.4 = concentration at which the compound increased the enzymatic activity
Protocol: Preparation of fast skeletal myofibrils: Rabbit skeletal myofibrils were prepared based upon the method of Herrmann et al. (Biochem. 32(28):7255-7263(1993). Myofibrils were prepared from rabbit psoas muscle purchased from Pel-Freez Biologicals (Arkansas) within 2 days of ordering, stored on ice. Minced muscle was homogenized in 10 volumes of ice-cold “standard” buffer (50 mM Tris, pH 7.4, 0.1 M KOAc, 5 mM KCl, 2 mM dithiothreitol (DTT), 0.2 mM phenylmethylsulfonyl fluoride (PMSF), 10 μM leupeptin, 5 μM pepstatin, and 0.5 mM sodium azide) containing 5 mM ethylenediaminetetraacetic acid (EDTA) and 0.5% Triton X-100 using an Omni-Macro homogenizer. Myofibrils were recovered by low speed centrifugation (3000 rpm for 10 minutes) and washed 2 times in the Triton X-100 containing buffer to ensure removal of cellular membrane. Following the Triton washes, myofibrils were washed 3 times in “standard” buffer containing 2 mM magnesium acetate. A final wash in assay buffer (12 mM piperazine-1,4-bis(2-ethanesulfonic acid) (PIPES), pH 6.8, 60 mM KCl, 1 mM DTT) was performed and brought to 10% sucrose for flash freezing in liquid nitrogen and storage at −80° C.
Activation of Fast Skeletal Myofibrils: Fast fiber activators were identified by measuring the enzymatic activity of muscle myofibril preparations using the proprietary PUMA (trademark) (see, e.g., U.S. Pat. Nos. 6,410,254, 6,743,599, 7,202,051, and 7,378,254) assay system. Myofibril preparations consisted of rabbit skeletal muscle (approximately 90% fast fibers) that had been mechanically homogenized and washed with a detergent (Triton X-100) to remove cellular membranes. This preparation retained all of the sarcomeric components in a native conformation and the enzymatic activity was still regulated by calcium. Compounds were tested using a myofibril suspension and a level of calcium sufficient to increase enzymatic activity of the myofibrils to 25% of their maximal rate (termed pCa25). Enzymatic activity was tracked via a pyruvate kinase and lactate dehydrogenase-coupled enzyme system. This assay regenerates myosin-produced ADP into ATP by oxidizing NADH, producing an absorbance change at 340 nm. The buffering system was 12 mM PIPES, 2 mM MgCl2, 1 mM DTT at pH 6.8 (PM12 buffer). […] In Table 9, “Example Compound” refers to the compound labeled with the same number in Table 2.

SMILES	AC1.4 [µM]
CC[C@H](C)[C@H]1C(=O)Nc2cc(F)ccc2CN1C(=O)CCO [Compound 43, (S)-3-((S)-sec-butyl)-8-fluoro-4-(3-hydroxypropanoyl)-1,3,4,5-tetrahydro-2H-benzo[e][1,4]diazepin-2-one]	0.81
CC[C@H](C)[C@H]1C(=O)Nc2c(F)cccc2CN1C(N)=O [Compound 44, (S)-3-((S)-sec-butyl)-9-fluoro-2-oxo-1,2,3,5-tetrahydro-4H-benzo[e][1,4]diazepine-4-carboxamide]	0.26
CC[C@H](C)[C@H]1C(=O)Nc2ccccc2CN1C(=O)c1cn[nH]c1 [Compound 45, (S)-3-((S)-sec-butyl)-4-(1H-pyrazole-4-carbonyl)-1,3,4,5-tetrahydro-2H-benzo[e][1,4]diazepin-2-one]	0.08
CC[C@H](C)[C@H]1C(=O)Nc2ccccc2CN1C(=O)c1cnn(C)c1 [Compound 46, (S)-3-((S)-sec-butyl)-4-(1-methyl-1H-pyrazole-4-carbonyl)-1,3,4,5-tetrahydro-2H-benzo[e][1,4]diazepin-2-one]	0.13
CC[C@H](C)[C@H]1C(=O)Nc2ccccc2CN1C(=O)c1cccc(=O)[nH]1 [Compound 47, (S)-3-((S)-sec-butyl)-4-(6-oxo-1,6-dihydropyridine-2-carbonyl)-1,3,4,5-tetrahydro-2H-benzo[e][1,4]diazepin-2-one]	0.14
CC[C@H](C)[C@H]1C(=O)Nc2ccccc2CN1C(=O)c1cc[nH]c(=O)c1 [Compound 48, (S)-3-((S)-sec-butyl)-4-(2-oxo-1,2-dihydropyridine-4-carbonyl)-1,3,4,5-tetrahydro-2H-benzo[d][1,4]diazepin-2-one]	0.06
CC[C@H](C)[C@H]1C(=O)Nc2ccccc2CN1C(=O)c1cc(O)n[nH]1 [Compound 50, (S)-3-((S)-sec-butyl)-4-(3-hydroxy-1H-pyrazole-5-carbonyl)-1,3,4,5-tetrahydro-2H-benzo[e][1,4]diazepin-2-one]	0.17
CC[C@H](C)[C@H]1C(=O)Nc2ccccc2CN1C(=O)C(C)(C)O [Compound 51, (S)-3-((S)-sec-Butyl)-4-(2-hydroxy-2-methylpropanoyl)-1,3,4,5-tetrahydro-2H-benzo[e][1,4]diazepin-2-one]	1.23
CC[C@H](C)[C@H]1C(=O)Nc2ccccc2CN1c1nc(N)cc(=O)[nH]1 [Compound 52, (S)-4-(4-Amino-6-oxo-1,6-dihydropyrimidin-2-yl)-3-((S)-sec-butyl)-1,3,4,5-tetrahydro-2H-benzo[e][1,4]diazepin-2-one]	0.03
CC[C@H](C)[C@H]1C(=O)Nc2ccccc2CN1c1nc(C)cc(=O)[nH]1 [Compound 53, (S)-3-((S)-sec-Butyl)-4-(4-methyl-6-oxo-1,6-dihydropyrimidin-2-yl)-1,3,4,5-tetrahydro-2H-benzo[e][1,4]diazepin-2-one]	0.10
CC[C@H](C)[C@H]1C(=O)Nc2ccccc2CN1c1cc(=O)[nH]cn1 [Compound 54, (S)-3-((S)-sec-butyl)-4-(6-oxo-1,6-dihydropyrimidin-4-yl)-1,3,4,5-tetrahydro-2H-benzo[e][1,4]diazepin-2-one]	0.09
CC[C@H](C)[C@H]1C(=O)Nc2ccccc2CN1c1noc(C)n1 [Compound 55, (S)-3-((S)-sec-Butyl)-4-(5-methyl-1,2,4-oxadiazol-3-yl)-1,3,4,5-tetrahydro-2H-benzo[e][1,4]diazepin-2-one]	0.21
CC[C@H](C)[C@H]1C(=O)Nc2ccccc2CN1c1ncon1 [Compound 56, (S)-3-((S)-sec-Butyl)-4-(1,2,4-oxadiazol-3-yl)-1,3,4,5-tetrahydro-2H-benzo[e][1,4]diazepin-2-one]	0.08
CC[C@H](C)[C@H]1C(=O)Nc2ccccc2CN1c1c(N)c(=O)c1=O [Compound 57, 3-Amino-4-((S)-3-((S)-sec-butyl)-2-oxo-1,2,3,5-tetrahydro-4H-benzo[e][1,4]diazepin-4-yl)cyclobut-3-ene-1,2-dione]	0.03
CC[C@H](C)[C@H]1C(=O)Nc2ccccc2CN1C(=O)N(C)C [Compound 58, (S)-3-((S)-sec-butyl)-N,N-dimethyl-2-oxo-1,2,3,5-tetrahydro-4H-benzo[e][1,4]diazepine-4-carboxamide]	0.13
CC[C@H](C)[C@H]1C(=O)Nc2ccccc2CN1C(=O)N1CC(OC)C1 [Compound 59, (S)-3-((S)-sec-butyl)-4-(3-methoxyazetidine-1-carbonyl)-1,3,4,5-tetrahydro-2H-benzo[e][1,4]diazepin-2-one]	0.17

SMILES	AC1.4 [µM]
CC[C@H](C)[C@H]1C(=O)Nc2ccccc2CN1c1ncc(N)c(OC)n1 [Compound 60, (S)-4-(5-Amino-4-methoxypyrimidin-2-yl)-3-((S)-sec-butyl)-1,3,4,5-tetrahydro-2H-benzo[e][1,4]diazepin-2-one]	0.07
CC[C@H](C)[C@H]1C(=O)Nc2ccccc2CN1c1ncncn1 [Compound 61, (S)-3-((S)-sec-Butyl)-4-(1,3,5-triazin-2-yl)-1,3,4,5-tetrahydro-2H-benzo[e][1,4]diazepin-2-one]	0.07
CC[C@H](C)[C@H]1C(=O)Nc2ccccc2CN1CCO [Compound 62, (S)-3-((S)-sec-Butyl)-4-(2-hydroxyethyl)-1,3,4,5-tetrahydro-2H-benzo[e][1,4]diazepin-2-one]	2.25
CC[C@H](C)[C@H]1C(=O)Nc2ccccc2C(C)(C)N1C(N)=O [Compound 63, (S)-3-((S)-sec-Butyl)-5,5-dimethyl-2-oxo-1,2,3,5-tetrahydro-4H-benzo[e][1,4]diazepine-4-carboxamide]	0.10
CC[C@H](C)[C@H]1C(=O)Nc2cccc(Cl)c2CN1C(=O)N1CC(O)C1 [Compound 66, (S)-3-((S)-sec-butyl)-6-chloro-4-(3-hydroxyazetidine-1-carbonyl)-1,3,4,5-tetrahydro-2H-benzo[e][1,4]diazepin-2-one]	3.00
CC[C@H](C)[C@H]1C(=O)Nc2cccc(Br)c2CN1C(N)=O [Compound 67, (S)-6-bromo-3-((S)-sec-butyl)-2-oxo-1,2,3,5-tetrahydro-4H-benzo[e][1,4]diazepine-4-carboxamide]	2.15
CC[C@H](C)[C@H]1C(=O)Nc2cccc(C3CC3)c2CN1C(N)=O [Compound 68, (S)-3-((S)-sec-butyl)-6-cyclopropyl-2-oxo-1,2,3,5-tetrahydro-4H-benzo[e][1,4]diazepine-4-carboxamide]	4.30
CC[C@H](C)[C@H]1C(=O)Nc2ccc(F)cc2CN1C(C)=O [Compound 69, (S)-4-acetyl-3-((S)-sec-butyl)-7-fluoro-1,3,4,5-tetrahydro-2H-benzo[e][1,4]diazepin-2-one]	0.72
CC[C@H](C)[C@H]1C(=O)Nc2ccc(F)cc2CN1C(=O)c1ccn[nH]1 [Compound 70, (S)-3-((S)-sec-butyl)-7-fluoro-4-(1H-pyrazole-5-carbonyl)-1,3,4,5-tetrahydro-2H-benzo[e][1,4]diazepin-2-one]	0.23
CC[C@H](C)[C@H]1C(=O)Nc2ccc(F)cc2CN1/C(N)=N\C#N [Compound 71, (S,Z)-3-((S)-sec-butyl)-N′-cyano-7-fluoro-2-oxo-1,2,3,5-tetrahydro-4H-benzo[e][1,4]diazepine-4-carboximidamide]	0.15
CC[C@H](C)[C@H]1C(=O)Nc2ccc(F)cc2CN1C(=O)N1CC(O)C1 [Compound 72, (S)-3-((S)-sec-butyl)-7-fluoro-4-(3-hydroxyazetidine-1-carbonyl)-1,3,4,5-tetrahydro-2H-benzo[e][1,4]diazepin-2-one]	0.41
CC[C@H](C)[C@H]1C(=O)Nc2ccc(Cl)cc2CN1C(N)=O [Compound 73, (S)-3-((S)-sec-butyl)-7-chloro-2-oxo-1,2,3,5-tetrahydro-4H-benzo[e][1,4]diazepine-4-carboxamide]	0.93
CC[C@H](C)[C@H]1C(=O)Nc2ccc(C3CC3)cc2CN1C(N)=O [Compound 74, (S)-3-((S)-sec-butyl)-7-cyclopropyl-2-oxo-1,2,3,5-tetrahydro-4H-benzo[e][1,4]diazepine-4-carboxamide]	2.39
CC[C@H](C)[C@H]1C(=O)Nc2cc(F)ccc2CN1C(N)=O [Compound 75, (S)-3-((S)-sec-butyl)-8-fluoro-2-oxo-1,2,3,5-tetrahydro-4H-benzo[e][1,4]diazepine-4-carboxamide]	0.13
CC[C@H](C)[C@H]1C(=O)Nc2cc(F)ccc2CN1C(=O)N1CC(O)C1 [Compound 76, (S)-3-((S)-sec-butyl)-8-fluoro-4-(3-hydroxyazetidine-1-carbonyl)-1,3,4,5-tetrahydro-2H-benzo[e][1,4]diazepin-2-one]	0.14
